Measurements published in patent US20110070232A1, “Combination Therapy with an Antitumor Alkaloid” (Pharma Mar, S.A., priority 2008, published 2011).
Like-named read-outs stand apart in the source and are kept apart here.

What was measured:
Type in all cases: in vivo, mice
MRI-H-254 tumors = test system: MRI-H-254 tumors
Protocol: Female athymic nude mice (Harlan Sprague Dawley, Madison, Wis.) were utilized for all experiments. Animals were housed in ventilated rack caging with food and water ad libitum. The mice were acclimated for at least 5 days prior to tumor implantation with tumor fragments.
Treatments were initiated on DPI 16.
(§1) Tumor size measurements were recorded twice weekly from the treatment initiation until the termination of the study.
(§2) Mean, standard deviation and standard error of the mean were determined for tumor volume for all animal groups at all assessments. Student's t test was performed on tumor volumes at each measurement day, including at the end of the study, to determine whether there were any statistically significant differences between combination treatment groups and single monotherapy treatment groups.

HepG2 tumors = test system: HepG2 tumors
Protocol: (§3) Female athymic nude mice (Harlan Sprague Dawley, Madison, Wis.) were utilized for all experiments. Animals were housed in ventilated rack caging with food and water ad libitum. The mice were acclimated for at least 5 days prior to tumor implantation with a tumor cell suspension.
The tumor model used in these studies was HepG2 cell line, which was obtained from the ATCC (Manassas, Va.).
HepG2 cells were grown in MEM supplemented with 10% FBS, 1.5 g/L sodium bicarbonate, 0.1 mM non-essential amino acids, 1.0 mM sodium pyruvate, and 2 mM L-glutamine. Each animal was implanted SC on the right flank, using a 13G trochar, with 5×10^6 HepG2 cells in a 0.2 mL suspension of 50% Matrigel and 50% serum free medium, without antibiotics. Bacterial cultures were performed on aliquots of the cells prepared for implantation.
Treatments were initiated on DPI 19.
as §1, §2

PLC/PRF/5 tumors = test system: PLC/PRF/5 tumors
Protocol: as §3
The tumor model used in these studies was PLC/PRF/5 cell line, which was obtained from the ATCC (Manassas, Va.).
PLC/PRF/5 were grown in Eagle's minimum essential medium supplemented with 10% FBS and 1% L-glutamine. Each animal was implanted SC on the right flank, using a 13G trochar and 1 mL syringe, with 5×10^6 PLC/PRF/5 cells in a 0.2 mL suspension of 50% Matrigel and 50% serum free MEM medium, without antibiotics. Bacterial cultures were performed on aliquots of the cells prepared for implantation.
Treatments were initiated on DPI 14.
as §1, §2

NCI-H460 tumors = settings: alone or with PM00104 0.9 mg/kg/day IV
Protocol: Female athymic nude mice (Harlan Sprague Dawley, Madison, Wis.) were utilized for all experiments. Animals were housed in ventilated rack caging with food and water ad libitum. The mice were acclimated for at least 5 days prior to tumor implantation.
The tumor model used in this study was NCI-H460 cell line which is a human NSCLC cell line obtained from the ATCC (Manassas, Va.). […] Cells from in vitro passage 7 were implanted SC into study mice using a 1 ml syringe with a 13G trocar: 5×10^6 cells/mouse in 0.2 ml 50% Matrigel/50% RPMI medium of NCI-H460 without serum or antibiotics. Bacterial culture was taken on cells used to implant the study.
Treatments were initiated on DPI 9.
Tumor size measurements were recorded 2-3 times/week from the treatment initiation until the termination of the study.
as §2

[1] = day 20, PM00104 0.90, cisplatin 3, irinotecan 10, paclitaxel 12.5 mg/kg/day
[2] = day 20, PM00104 0.90, cisplatin 5, irinotecan 18, paclitaxel 25 mg/kg/day
[3] = day 23, PM00104 0.90, cisplatin 3, irinotecan 10, paclitaxel 12.5 mg/kg/day
[4] = day 26, PM00104 0.90, cisplatin 3, irinotecan 10, paclitaxel 12.5 mg/kg/day
[5] = day 29, PM00104 0.90, cisplatin 3, irinotecan 10, paclitaxel 12.5 mg/kg/day
[6] = day 40, PM00104 0.90, cisplatin 3, irinotecan 10, paclitaxel 12.5 mg/kg/day
[7] = day 40, PM00104 0.90, cisplatin 5, irinotecan 18, paclitaxel 25 mg/kg/day
[8] = day 48, PM00104 0.90, cisplatin 3, irinotecan 10, paclitaxel 12.5 mg/kg/day
[9] = day 48, PM00104 0.90, cisplatin 5, irinotecan 18, paclitaxel 25 mg/kg/day
[10] = day 19, PM00104 0.90, sorafenib 30 mg/kg/day
[11] = day 22, PM00104 0.90, sorafenib 30 mg/kg/day
[12] = day 22, PM00104 0.90, sorafenib 60 mg/kg/day
[13] = day 26, PM00104 0.90, sorafenib 60 mg/kg/day
[14] = day 30, PM00104 0.90, sorafenib 30 mg/kg/day
[15] = day 30, PM00104 0.90, sorafenib 60 mg/kg/day
[16] = day 33, PM00104 0.90, sorafenib 60 mg/kg/day
[17] = day 14, PM00104 0.90, sorafenib 60 mg/kg/day
[18] = day 25, PM00104 0.90, sorafenib 60 mg/kg/day
[19] = day 28, PM00104 0.90, sorafenib 60 mg/kg/day
[20] = day 32, PM00104 0.90, sorafenib 60 mg/kg/day
[21] = day 39, PM00104 0.90, sorafenib 60 mg/kg/day
[22] = day 42, PM00104 0.90, sorafenib 60 mg/kg/day

CCc1c2c(nc3ccc(OC(=O)N4CCC(N5CCCCC5)CC4)cc13)-c1cc3c(c(=O)n1C2)COC(=O)[C@]3(O)CC [irinotecan]
% Inhibition (MRI-H-254 tumors; day 16, PM00104 0.90, cisplatin 3, irinotecan 10, paclitaxel 12.5 mg/kg/day): 1.6%
% Inhibition (MRI-H-254 tumors; day 16, PM00104 0.90, cisplatin 5, irinotecan 18, paclitaxel 25 mg/kg/day): 1.9%
% Inhibition (MRI-H-254 tumors; [1]): 7.5%
% T/C (MRI-H-254 tumors; [1]): 92.5%
% Inhibition (MRI-H-254 tumors; [2]): 7.9%
% T/C (MRI-H-254 tumors; [2]): 92.1%
% Inhibition (MRI-H-254 tumors; [3]): 7.0%
% T/C (MRI-H-254 tumors; [3]): 93.0%
% Inhibition (MRI-H-254 tumors; day 23, PM00104 0.90, cisplatin 5, irinotecan 18, paclitaxel 25 mg/kg/day): 16.0%
% Inhibition (MRI-H-254 tumors; [4]): 9.8%
% T/C (MRI-H-254 tumors; [4]): 90.2%
% Inhibition (MRI-H-254 tumors; day 26, PM00104 0.90, cisplatin 5, irinotecan 18, paclitaxel 25 mg/kg/day): 25.0%
% Inhibition (MRI-H-254 tumors; [5]): 11.4%
% T/C (MRI-H-254 tumors; [5]): 88.6%
% Inhibition (MRI-H-254 tumors; [6]): 50.8%
% T/C (MRI-H-254 tumors; [6]): 49.2%
% Inhibition (MRI-H-254 tumors; [7]): 59.9%
% T/C (MRI-H-254 tumors; [7]): 40.1%
% Inhibition (MRI-H-254 tumors; [8]): 58.6%
% T/C (MRI-H-254 tumors; [8]): 41.4%
% Inhibition (MRI-H-254 tumors; [9]): 65.1%
% T/C (MRI-H-254 tumors; [9]): 34.9%

CNC(=O)c1cc(Oc2ccc(NC(=O)Nc3ccc(Cl)c(C(F)(F)F)c3)cc2)ccn1 [sorafenib]
% Inhibition (HepG2 tumors; day 19, PM00104 0.60, sorafenib 30 mg/kg/day): −1.4%
% Inhibition (HepG2 tumors; day 19, PM00104 0.60, sorafenib 60 mg/kg/day): 11.2%
% Inhibition (HepG2 tumors; [10]): −1.4%
% T/C (HepG2 tumors; [10]): 101.4%
% Inhibition (HepG2 tumors; day 19, PM00104 0.90, sorafenib 60 mg/kg/day): 11.2%
% Inhibition (HepG2 tumors; day 22, PM00104 0.60, sorafenib 30 mg/kg/day): −23.5%
% Inhibition (HepG2 tumors; day 22, PM00104 0.60, sorafenib 60 mg/kg/day): 21.3%
% Inhibition (HepG2 tumors; [11]): −23.5%
% T/C (HepG2 tumors; [11]): 123.5%
% Inhibition (HepG2 tumors; [12]): 21.3%
% T/C (HepG2 tumors; [12]): 78.7%
% Inhibition (HepG2 tumors; day 26, PM00104 0.60, sorafenib 30 mg/kg/day): 8.7%
% Inhibition (HepG2 tumors; day 26, PM00104 0.60, sorafenib 60 mg/kg/day): 39.9%
% Inhibition (HepG2 tumors; day 26, PM00104 0.90, sorafenib 30 mg/kg/day): 8.7%
% Inhibition (HepG2 tumors; [13]): 39.9%
% T/C (HepG2 tumors; [13]): 60.1%
% Inhibition (HepG2 tumors; day 30, PM00104 0.60, sorafenib 30 mg/kg/day): −0.9%
% Inhibition (HepG2 tumors; day 30, PM00104 0.60, sorafenib 60 mg/kg/day): 38.2%
% Inhibition (HepG2 tumors; [14]): −0.9%
% T/C (HepG2 tumors; [14]): 100.9%
% Inhibition (HepG2 tumors; [15]): 38.2%
% T/C (HepG2 tumors; [15]): 61.8%
% Inhibition (HepG2 tumors; day 33, PM00104 0.60, sorafenib 30 mg/kg/day): 9.6%
% Inhibition (HepG2 tumors; day 33, PM00104 0.60, sorafenib 60 mg/kg/day): 33.8%
% Inhibition (HepG2 tumors; day 33, PM00104 0.90, sorafenib 30 mg/kg/day): 9.6%
% Inhibition (HepG2 tumors; [16]): 33.8%
% T/C (HepG2 tumors; [16]): 66.2%
% T/C (PLC/PRF/5 tumors; day 14, PM00104 0.90, sorafenib 30 mg/kg/day): 99.5%
% Inhibition (PLC/PRF/5 tumors; [17]): 1.5%
% T/C (PLC/PRF/5 tumors; [17]): 98.5%
% Inhibition (PLC/PRF/5 tumors; day 18, PM00104 0.90, sorafenib 60 mg/kg/day): 26.4%
% T/C (PLC/PRF/5 tumors; [11]): 79.5%
% Inhibition (PLC/PRF/5 tumors; [12]): 47.8%
% T/C (PLC/PRF/5 tumors; [12]): 52.2%
% Inhibition (PLC/PRF/5 tumors; [18]): 46.6%
% T/C (PLC/PRF/5 tumors; [18]): 53.4%
% Inhibition (PLC/PRF/5 tumors; [19]): 56.6%
% T/C (PLC/PRF/5 tumors; [19]): 43.4%
% Inhibition (PLC/PRF/5 tumors; [20]): 57.1%
% T/C (PLC/PRF/5 tumors; [20]): 42.9%
% T/C (PLC/PRF/5 tumors; day 35, PM00104 0.90, sorafenib 30 mg/kg/day): 54.7%
% T/C (PLC/PRF/5 tumors; day 35, PM00104 0.90, sorafenib 60 mg/kg/day): 36.5%
% T/C (PLC/PRF/5 tumors; day 39, PM00104 0.90, sorafenib 30 mg/kg/day): 59.3%
% Inhibition (PLC/PRF/5 tumors; [21]): 49.8%
% T/C (PLC/PRF/5 tumors; [21]): 50.2%
% Inhibition (PLC/PRF/5 tumors; [22]): 44.6%
% T/C (PLC/PRF/5 tumors; [22]): 55.4%

CO[C@H]1C[C@@H]2CC[C@@H](C)[C@@](O)(O2)C(=O)C(=O)N2CCCC[C@H]2C(=O)O[C@H]([C@H](C)C[C@@H]2CC[C@@H](OC(=O)C(C)(CO)CO)[C@H](OC)C2)CC(=O)[C@H](C)/C=C(\C)[C@@H](O)[C@@H](OC)C(=O)[C@H](C)C[C@H](C)/C=C/C=C/C=C/1C [temsirolimus]
% T/C on day 9 (NCI-H460 tumors; Temsirolimus 10 mg/kg/day IP): 101.9%
% T/C on day 13 (NCI-H460 tumors; Temsirolimus 10 mg/kg/day IP): 60.4%
% T/C on day 16 (NCI-H460 tumors; Temsirolimus 10 mg/kg/day IP): 55.5%
% T/C on day 21 (NCI-H460 tumors; Temsirolimus 10 mg/kg/day IP): 40.5%
% T/C on day 24 (NCI-H460 tumors; Temsirolimus 10 mg/kg/day IP): 18.9%
% T/C on day 30 (NCI-H460 tumors; Temsirolimus 10 mg/kg/day IP): 22.0%
% T/C on day 38 (NCI-H460 tumors; Temsirolimus 10 mg/kg/day IP): 52.0%
% T/C on day 41 (NCI-H460 tumors; Temsirolimus 10 mg/kg/day IP): 66.4%
% T/C on day 9 (NCI-H460 tumors; Temsirolimus 20 mg/kg/day IP): 104.4%
% T/C on day 13 (NCI-H460 tumors; Temsirolimus 20 mg/kg/day IP): 66.4%
% T/C on day 16 (NCI-H460 tumors; Temsirolimus 20 mg/kg/day IP): 68.4%
% T/C on day 21 (NCI-H460 tumors; Temsirolimus 20 mg/kg/day IP): 46.8%
% T/C on day 24 (NCI-H460 tumors; Temsirolimus 20 mg/kg/day IP): 35.9%
% T/C on day 27 (NCI-H460 tumors; Temsirolimus 20 mg/kg/day IP): 15.9%
% T/C on day 30 (NCI-H460 tumors; Temsirolimus 20 mg/kg/day IP): 23.9%
% T/C on day 38 (NCI-H460 tumors; Temsirolimus 20 mg/kg/day IP): 61.2%
% T/C on day 41 (NCI-H460 tumors; Temsirolimus 20 mg/kg/day IP): 65.2%
